The target of test [1] is BDNF/NT-3 growth factors receptor (Homo sapiens, UniProt Q16620). Kind of test: Inhibition of wild type TrkB (unknown origin) using poly(Glu: Tyr) as substrate preincubated for 15 mins followed by substrate addition and further incubated for 30 mins in presence of [gamma-33P]ATP by scintillation counting method.
Another test relates to BaF3. As to the kind of experiment: cells. The following applies: Mus musculus.
For test [2], the target named is High affinity nerve growth factor receptor (Homo sapiens, UniProt P04629). As to the kind of experiment: Inhibition of wild type TrkA (unknown origin) using poly(Glu: Tyr) as substrate preincubated for 15 mins followed by substrate addition and further incubated for 30 mins in presence of [gamma-33P]ATP by scintillation counting method.
Chain of High affinity nerve growth factor receptor (P04629 whole entry): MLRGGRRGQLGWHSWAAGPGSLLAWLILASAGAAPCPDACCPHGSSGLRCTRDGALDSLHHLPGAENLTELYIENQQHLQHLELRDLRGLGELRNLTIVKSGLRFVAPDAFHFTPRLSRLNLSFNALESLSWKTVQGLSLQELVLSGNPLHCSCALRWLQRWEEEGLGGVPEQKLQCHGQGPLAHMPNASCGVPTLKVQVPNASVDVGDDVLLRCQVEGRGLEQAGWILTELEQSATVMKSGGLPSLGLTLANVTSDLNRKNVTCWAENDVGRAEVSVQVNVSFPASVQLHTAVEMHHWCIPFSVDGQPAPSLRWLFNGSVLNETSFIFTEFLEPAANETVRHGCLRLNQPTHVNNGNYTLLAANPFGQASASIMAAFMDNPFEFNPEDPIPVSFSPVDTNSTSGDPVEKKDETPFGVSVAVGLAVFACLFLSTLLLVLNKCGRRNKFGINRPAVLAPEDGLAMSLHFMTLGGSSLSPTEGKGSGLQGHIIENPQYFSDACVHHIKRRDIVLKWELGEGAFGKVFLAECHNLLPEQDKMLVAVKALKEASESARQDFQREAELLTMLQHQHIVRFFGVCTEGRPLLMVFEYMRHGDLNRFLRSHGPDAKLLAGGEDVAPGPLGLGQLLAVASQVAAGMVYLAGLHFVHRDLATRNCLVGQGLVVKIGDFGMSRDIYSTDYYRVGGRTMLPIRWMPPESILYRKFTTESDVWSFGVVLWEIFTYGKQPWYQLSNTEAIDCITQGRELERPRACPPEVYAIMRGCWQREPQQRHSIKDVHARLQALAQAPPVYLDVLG

Molecules are shown by their SMILES.

Chain of BDNF/NT-3 growth factors receptor (Q16620 whole entry): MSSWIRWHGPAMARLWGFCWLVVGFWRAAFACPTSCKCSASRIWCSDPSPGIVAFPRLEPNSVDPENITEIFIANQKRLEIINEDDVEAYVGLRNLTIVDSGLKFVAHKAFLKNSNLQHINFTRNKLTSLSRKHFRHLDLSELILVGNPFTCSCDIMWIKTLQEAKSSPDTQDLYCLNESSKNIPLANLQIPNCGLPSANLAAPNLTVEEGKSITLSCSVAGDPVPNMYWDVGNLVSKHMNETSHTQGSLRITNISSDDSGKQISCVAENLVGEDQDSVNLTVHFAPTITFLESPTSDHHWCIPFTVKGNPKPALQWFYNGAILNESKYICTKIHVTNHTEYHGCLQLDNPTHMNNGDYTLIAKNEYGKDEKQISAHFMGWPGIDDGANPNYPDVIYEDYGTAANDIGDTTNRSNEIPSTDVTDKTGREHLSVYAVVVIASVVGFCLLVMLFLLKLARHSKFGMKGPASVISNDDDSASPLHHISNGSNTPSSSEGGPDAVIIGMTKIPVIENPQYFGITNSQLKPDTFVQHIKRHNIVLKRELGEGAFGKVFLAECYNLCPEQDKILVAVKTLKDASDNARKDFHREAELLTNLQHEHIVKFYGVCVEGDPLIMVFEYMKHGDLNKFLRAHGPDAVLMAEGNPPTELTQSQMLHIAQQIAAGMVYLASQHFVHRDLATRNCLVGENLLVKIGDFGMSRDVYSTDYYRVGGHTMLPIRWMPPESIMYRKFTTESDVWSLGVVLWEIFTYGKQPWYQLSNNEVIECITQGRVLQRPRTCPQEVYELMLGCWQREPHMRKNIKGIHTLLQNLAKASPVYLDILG
Description for BaF3: Cytotoxicity against mouse BaF3 cells harboring TEL fused TrkC G613R mutant assessed as inhibition of cell growth by MTT assay

The term IC50 denotes the concentration that gives 50% inhibition. As to `CC1(C)Oc2c(ncnc2Nc2cccc(NC(=O)Nc3cc(C(C)(C)C)nn3-c3ccccc3)c2)NC1=O`, the IC50 in test [1] is 342 nM; in the test on BaF3, over 10000 nM.

For `CC1(C)Oc2c(ncnc2Nc2ccc(NC(=O)Nc3cc(C(C)(C)C)on3)cc2)NC1=O`, the results for the IC50 (in test [1]; in test [2]; in the test with BaF3) were 33 nM, 156 nM and 3760 nM, respectively.

Regarding `Cc1cc(Nc2ncnc3c2OC(C)(C)C(=O)N3)ccc1NC(=O)Nc1cc(C(C)(C)C)nn1-c1ccccc1`, the IC50 is 88 nM in test [1], 127 nM in test [2] and 6040 nM in the test on BaF3.

Take `Cc1cc(NC(=O)Nc2cc(-c3ccccc3)nn2-c2ccccc2)ccc1Nc1ncnc2c1OC(C)(C)C(=O)N2`: the IC50 in test [1] amounted to 171 nM; in test [2] it was 38 nM; in the test on BaF3, 1900 nM.

For `CC1(C)Oc2c(ncnc2Nc2ccc(NC(=O)Nc3cc(C(C)(C)C)no3)cc2)NC1=O`, the IC50 in test [1] was 48 nM; in test [2] it was 111 nM; in the test with BaF3, 6520 nM.

For the compound `Cc1cc(NC(=O)Nc2cc(C(C)(C)C)nn2-c2cccnc2)ccc1Nc1ncnc2c1OC(C)(C)C(=O)N2`, the IC50 turned out to be 22 nM in test [1], 14 nM in test [2] and 709 nM in the test on BaF3.

Consider `CC1(C)Oc2c(ncnc2Nc2ccc(NC(=O)Nc3cc(C(C)(C)C)nn3-c3ccccc3)c(C(F)(F)F)c2)NC1=O`, for which the IC50 in test [1] amounted to 182 nM; in test [2] it was 149 nM; with BaF3, 3900 nM.

For `Cc1cc(NC(=O)Nc2cc(C(C)(C)C)nn2-c2cccc(F)c2)ccc1Nc1ncnc2c1OC(C)(C)C(=O)N2`, the IC50 in test [1] is 14 nM; in test [2], 13 nM; in the test with BaF3, 1140 nM.

On to `Cc1cc(NC(=O)Nc2cc(C(C)(C)C)nn2-c2c(F)c(F)c(F)c(F)c2F)ccc1Nc1ncnc2c1OC(C)(C)C(=O)N2`, for which the IC50 in test [1] was determined as 42 nM; in test [2] it was 52 nM; in the test on BaF3 it was 740 nM.

For `CC1(C)Oc2c(ncnc2Nc2ccc(NC(=O)Nc3cccc(C(F)(F)F)c3)cc2)NC1=O`, the IC50 in test [1] was determined as 17 nM; in the test with BaF3 it was 4020 nM.

Take `COc1cc(Nc2ncnc3c2OC(C)(C)C(=O)N3)ccc1NC(=O)Nc1cc(C(C)(C)C)nn1-c1ccccc1`: the results for the IC50 (in test [1]; in test [2]; with BaF3) were 10 nM, 38 nM and 978 nM, respectively.

In the case of `C=CCNC(=O)Nc1ccc(Nc2ncnc3c2OC(C)(C)C(=O)N3)cc1`, the IC50 in test [1] and in test [2] was over 10000 nM each time.

As to `CC1(C)Oc2c(ncnc2Nc2ccc(NC(=O)NC3CCCCC3)cc2)NC1=O`, the IC50 in test [1] and in test [2] was over 10000 nM in each case.

In the case of `Cc1cc(NC(=O)Nc2cc(C3CC3)nn2-c2ccccc2)ccc1Nc1ncnc2c1OC(C)(C)C(=O)N2`, the IC50 in test [1] worked out at 10 nM; in test [2] it was 23 nM; in the test with BaF3 it was 2010 nM.

As to `Cn1nc(C(C)(C)C)cc1NC(=O)Nc1ccc(Nc2ncnc3c2OC(C)(C)C(=O)N3)cc1`, the IC50 in test [1] and in test [2] was over 10000 nM in each case.

On to `CC1(C)Oc2c(ncnc2Nc2ccc(NC(=O)Nc3cccc(F)c3)cc2)NC1=O`, for which the IC50 in test [1] and in test [2] was over 10000 nM in each case.

In the case of `CC1(C)Oc2c(ncnc2Nc2ccc(NC(=O)Nc3ccc(C#N)cc3)cc2)NC1=O`, the IC50 in test [1] and in test [2] was over 10000 nM throughout.

On to `CCNC(=O)Nc1ccc(Nc2ncnc3c2OC(C)(C)C(=O)N3)cc1`, for which the IC50 in test [1] and in test [2] was over 10000 nM each time.

In the case of `CC1(C)Oc2c(ncnc2Nc2ccc(NC(=O)Nc3ccc(F)c(F)c3)cc2)NC1=O`, the IC50 in test [1] and in test [2] was over 10000 nM in each case.

Regarding `CC(C)(C)NC(=O)Nc1ccc(Nc2ncnc3c2OC(C)(C)C(=O)N3)cc1`, the IC50 in test [1] and in test [2] was over 10000 nM each time.

In the case of `Cc1ccc(NC(=O)Nc2ccc(Nc3ncnc4c3OC(C)(C)C(=O)N4)cc2)cc1`, the IC50 in test [1] and in test [2] was over 10000 nM each time.

On to `CC1(C)Oc2c(ncnc2Nc2ccc(NC(=O)NC34C[C@H]5C[C@@H](C3)C[C@@H](C4)C5)cc2)NC1=O`, for which the IC50 in test [1] and in test [2] was over 10000 nM each time.

The values are drawn from ChEMBL document CHEMBL5042533, “Structural Optimization and Structure-Activity Relationship Studies of 6,6-Dimethyl-4-(phenylamino)-6H-pyrimido[5,4-b][1,4]oxazin-7(8H)-one Derivatives as A New Class of Potent Inhibitors of Pan-Trk and Their Drug-Resistant Mutants” (J Med Chem, 2022).
